Target: T1, Human DGAT1 (Homo sapiens, UniProt O75907)
T1 construct: made in house; host or cells: Sf9 insect cells (baculovirus), microsomes
T1 sequence (O75907 1-488): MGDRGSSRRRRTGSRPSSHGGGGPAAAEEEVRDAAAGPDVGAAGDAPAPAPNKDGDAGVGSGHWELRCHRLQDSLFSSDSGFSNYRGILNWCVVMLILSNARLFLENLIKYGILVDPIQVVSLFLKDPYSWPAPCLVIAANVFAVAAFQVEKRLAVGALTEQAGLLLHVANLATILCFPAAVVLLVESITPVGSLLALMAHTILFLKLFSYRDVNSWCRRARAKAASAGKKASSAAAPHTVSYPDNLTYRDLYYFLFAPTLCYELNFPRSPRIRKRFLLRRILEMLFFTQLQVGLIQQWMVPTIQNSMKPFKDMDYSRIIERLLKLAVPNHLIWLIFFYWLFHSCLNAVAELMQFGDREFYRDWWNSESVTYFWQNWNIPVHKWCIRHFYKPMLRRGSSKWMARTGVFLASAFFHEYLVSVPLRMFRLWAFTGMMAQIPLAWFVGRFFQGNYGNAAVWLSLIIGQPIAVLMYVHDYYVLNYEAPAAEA
Test: human DGAT1 fluorescence (CPM) assay, inhibition of CoA product formation
Format: biochemical
Conditions: human DGAT1 fluorescene (CPM) assay; microsomes from Sf9 insect cells; read-out: hDGAT IC50
Protocol: Human DGAT1 was expressed in Sf9 insect cells using a baculovirus expression system. Microsomes were prepared and used as enzyme for in vitro inhibition testing in either of two formats measuring production of coenzyme A or tridecanoylglycerol product, respectively. All steps were performed at 21-23° C. All data for DGAT1 inhibition by test compounds were collected under conditions where product formation was linear with reaction time.
An equal volume (10 uL) of 3× enzyme in buffer was added and the components incubated for 30 minutes pre-reaction incubation to allow enzyme and test compounds to attain binding equilibrium. […] Some assays were performed with inclusion of didecanoylglycerol in the pre-reaction incubation of test compound and enzyme. DGAT reactions (30 uL) were initiated upon addition of 10 uL of 3× substrate solution. Final reaction conditions consisted of 20 mM HEPES pH 7.5, 2 mM MgCl2, 1 mM CHAPS, 50 uM didecanoylglycerol, 3 uM decanoyl-CoA, 1 ug/mL microsomal protein, and 1% DMSO. Following a 60 minute reaction incubation, reactions were stopped and CoA product derivatized with 30 uL of buffer containing 10 uM {4-[4-(4-amino-7,7-dimethyl-7H-pyrimido[4,5-b][1,4]oxazin-6-yl)phenyl]cyclohexyl}acetic acid and 50 uM 7-diethylamino-3-(4′-maleimidylphenyl)-4-methylcoumarin (CPM). […] IC50s were fitted using GraphPad Prism to a sigmoidal dose response.

Row | IC50 [nM] | Compound
1 | 10.8 | CC[C@@]1(CC(=O)O)CCc2cc(-c3ccc(NC(=O)Nc4cccc(C(F)(F)F)c4)cc3)ccc2[C@@H]1O (relative stereo) [Example 173, rel-2-[(1R,2S)-2-ethyl-1-hydroxy-6-[4-({[3-(trifluoromethyl)phenyl]carbamoyl}amino)phenyl]-1,2,3,4-tetrahydronaphthalen-2-yl]acetic acid]
2 | 32.8 | CC1(CC(=O)O)CCc2cc(-c3ccc(NC(=O)Nc4cccc(Cl)c4)cc3Cl)ccc2C1=O (single isomer, unassigned) [Example 212, 2-(6-(2-chloro-4-(3-(3-chlorophenyl)ureido)phenyl)-2-methyl-1-oxo-1,2,3,4-tetrahydronaphthalen-2-yl)acetic acid]
3 | 5.9 | CCC1(CC(=O)O)CCc2cc(-c3ccc(NC(=O)Nc4cccc(Cl)c4)cc3Cl)ccc2C1=O (single isomer, unassigned) [Example 213, 2-(6-(2-Chloro-4-(3-(3-chlorophenyl)ureido)phenyl)-2-ethyl-1-oxo-1,2,3,4-tetrahydronaphthalen-2-yl)acetic acid]
4 | 0.6 | O=C(O)CC1(CC(F)(F)F)CCc2cc(-c3ccc(NC(=O)Nc4cccc(Cl)c4)cc3)ccc2C1=O (single isomer, unassigned) [Example 214, 2-(6-(4-(3-(3-Chlorophenyl)ureido)phenyl)-1-oxo-2-(2,2,2-trifluoroethyl)-1,2,3,4-tetrahydronaphthalen-2-yl)acetic acid]
5 | 2.7 | O=C(O)CC1(CC(F)(F)F)CCc2cc(-c3cnc(NC(=O)NC4CCCCC4)cn3)ccc2C1=O (single isomer, unassigned) [Example 216, 2-(6-(5-(3-cyclohexylureido)pyrazin-2-yl)-1-oxo-2-(2,2,2-trifluoroethyl)-1,2,3,4-tetrahydronaphthalen-2-yl)acetic acid]
6 | 6.9 | COC1(CC(=O)O)CCc2cc(-c3ccc(NC(=O)Nc4cccc(C(F)(F)F)c4)cc3)ccc2C1=O (single isomer, unassigned) [Example 228]
7 | 1880 | O=C(O)CN1CCc2cc(-c3ccc(NC(=O)Nc4cccc(C(F)(F)F)c4)cc3)ccc2C1=O [Example 1, 2-{1-oxo-6-[4-({[3-(trifluoromethyl)phenyl]carbamoyl}amino)phenyl]-1,2,3,4-tetrahydroisoquinolin-2-yl}acetic acid]
8 | 586 | O=C(O)CC1CCc2cc(-c3ccc(NC(=O)Nc4ccc(F)c(C(F)(F)F)c4)cc3)ccc2C1 (stereo not drawn) [Example 20]
9 | 357 | O=C(O)CC1(O)CCc2cc(-c3ccc(NC(=O)Nc4cccc(C(F)(F)F)c4)cc3)ccc2C1 (stereo not drawn) [Example 40, 2-{2-hydroxy-6-[4-({[3-(trifluoromethyl)phenyl]carbamoyl}amino)phenyl]-1,2,3,4-tetrahydronaphthalen-2-yl}acetic acid]
10 | 60 | CCC1(CC(=O)O)Cc2cc(-c3ccc(NC(=O)Nc4cccc(C(F)(F)F)c4)cc3)ccc2C1=O (stereo not drawn) [Example 42, 2-{2-ethyl-1-oxo-5-[4-({[3-(trifluoromethyl)phenyl]carbamoyl}amino)phenyl]-2,3-dihydro-1H-inden-2-yl}acetic acid]
11 | 181 | O=C(O)CC1CCc2cc(-c3ccc(NC(=O)Nc4cccc(C(F)(F)F)c4)cc3)ccc2C1=O (stereo not drawn) [Example 47, 2-{1-oxo-6-[4-({[3-(trifluoromethyl)phenyl]carbamoyl}amino)phenyl]-1,2,3,4-tetrahydronaphthalen-2-yl}acetic acid]
12 | 503 | O=C(O)CC1CCc2cc(-c3ccc(NC(=O)Nc4cccc(C(F)(F)F)c4)cc3)ccc2C1O (stereo not drawn) [Example 68, 2-{1-hydroxy-6-[4-({[3-(trifluoromethyl)phenyl]carbamoyl}amino)phenyl]-1,2,3,4-tetrahydronaphthalen-2-yl}acetic acid]
13 | 114 | O=C(O)CCC1CCc2cc(-c3ccc(NC(=O)Nc4cccc(C(F)(F)F)c4)cc3)ccc2C1=O (stereo not drawn) [Example 69, 3-{1-oxo-6-[4-({[3-(trifluoromethyl)phenyl]carbamoyl}amino)phenyl]-1,2,3,4-tetrahydronaphthalen-2-yl}propanoic acid]
14 | 112 | CC(C)(C(=O)O)C1CCc2cc(-c3ccc(NC(=O)Nc4cccc(C(F)(F)F)c4)cc3)ccc2C1=O (stereo not drawn) [Example 76, 2-methyl-2-{1-oxo-6-[4-({[3-(trifluoromethyl)phenyl]carbamoyl}amino)phenyl]-1,2,3,4-tetrahydronaphthalen-2-yl}propanoic acid]
15 | 12 | CC1(CC(=O)O)CCc2cc(-c3ccc(NC(=O)Nc4cccc(Cl)c4)c(F)c3)ccc2C1=O (stereo not drawn) [Example 90]
16 | 14.2 | CC1(CC(=O)O)CCc2cc(-c3ccc(NC(=O)Nc4cccc(C(F)(F)F)c4)cn3)ccc2C1=O (stereo not drawn) [Example 109]
17 | 10.8 | CCC1(CC(=O)O)CCc2cc(-c3ccc(NC(=O)Nc4cccc(Cl)c4)cc3Cl)ccc2C1=O (stereo not drawn) [Example 139]
18 | 31.8 | CCC1(CC(=O)O)CCc2cc(-c3ccc(NC(=O)Nc4ccccc4)cc3Cl)ccc2C1=O (stereo not drawn) [Example 140]

Row | IC50 [nM] | Compound
19 | 9.4 | CCC1(CC(=O)O)CCc2cc(-c3ccc(NC(=O)Nc4ccccc4)c(F)c3)ccc2C1=O (stereo not drawn) [Example 141]
20 | 11.2 | CCC1(CC(=O)O)CCc2cc(-c3ccc(NC(=O)Nc4cccc(C(F)(F)F)c4)c(F)c3)ccc2C1=O (stereo not drawn) [Example 143]
21 | 5.8 | CCC1(CC(=O)O)CCc2cc(-c3ccc(NC(=O)Nc4cccc(Cl)c4)c(F)c3)ccc2C1=O (stereo not drawn) [Example 144]
22 | 47.8 | CCC1(CC(=O)O)CCc2cc(-c3cnc(NC(=O)Nc4ccccc4)cn3)ccc2C1=O (stereo not drawn) [Example 154]
23 | 4.5 | CC[C@@]1(CC(=O)O)CCc2cc(-c3ccc(NC(=O)Nc4cccc(Cl)c4)cn3)ccc2C1=O [Example 164]
24 | 48 | O=C(O)CC1(F)CCc2cc(-c3ccc(NC(=O)Nc4cccc(C(F)(F)F)c4)cc3)ccc2C1=O (stereo not drawn) [Example 182, 2-{2-fluoro-1-oxo-6-[4-({[3-(trifluoromethyl)phenyl]carbamoyl}amino)phenyl]-1,2,3,4-tetrahydronaphthalen-2-yl}acetic acid]
25 | 32 | O=C(O)CC1(O)CCc2cc(-c3ccc(NC(=O)Nc4cccc(C(F)(F)F)c4)cc3)ccc2C1=O (stereo not drawn) [Example 185, 2-{2-hydroxy-1-oxo-6-[4-({[3-(trifluoromethyl)phenyl]carbamoyl}amino)phenyl]-1,2,3,4-tetrahydronaphthalen-2-yl}acetic acid]
26 | 67.6 | COC1(CC(=O)O)CCc2cc(-c3ccc(NC(=O)Nc4ccccc4)cc3)ccc2C1=O (stereo not drawn) [Example 190, 2-(2-methoxy-1-oxo-6-{4-[(phenylcarbamoyl)amino]phenyl}-1,2,3,4-tetrahydronaphthalen-2-yl)acetic acid]
27 | 10.6 | COC1(CC(=O)O)CCc2cc(-c3ccc(NC(=O)Nc4cccc(Cl)c4)cc3)ccc2C1=O (stereo not drawn) [Example 192]
28 | 2.3 | COCC1(CC(=O)O)CCc2cc(-c3ccc(NC(=O)Nc4cccc(C(F)(F)F)c4)cc3)ccc2C1=O (stereo not drawn) [Example 197, 2-[2-(methoxymethyl)-1-oxo-6-[4-({[3-(trifluoromethyl)phenyl]carbamoyl}amino)phenyl]-1,2,3,4-tetrahydronaphthalen-2-yl]acetic acid]
29 | 55 | O=C(O)CC1(CO)CCc2cc(-c3ccc(NC(=O)Nc4cccc(Cl)c4)c(F)c3)ccc2C1=O (stereo not drawn) [Example 198, 2-(6-(4-(3-(3-Chlorophenyl)ureido)-3-fluorophenyl)-2-(hydroxymethyl)-1-oxo-1,2,3,4-tetrahydronaphthalen-2-yl)acetic acid]
30 | 6.5 | O=C(O)CC1(CC(F)(F)F)CCc2cc(-c3ccc(NC(=O)Nc4ccccc4)cc3)ccc2C1O (stereo not drawn) [Example 202]
31 | 3.5 | O=C(O)CC1(CC(F)(F)F)CCc2cc(-c3ccc(NC(=O)Nc4cccc(Cl)c4)cc3)ccc2C1=O (stereo not drawn) [Example 205]
32 | 1.8 | O=C(O)CC1(CC(F)(F)F)CCc2cc(-c3cnc(NC(=O)Nc4ccc(F)c(F)c4)cn3)ccc2C1=O (stereo not drawn) [Example 215, 2-(6-(5-(3-(3,4-Difluorophenyl)ureido)pyrazin-2-yl)-1-oxo-2-(2,2,2-trifluoroethyl)-1,2,3,4-tetrahydronaphthalen-2-yl)acetic acid]
33 | 5960 | CCC(CC)NC(=O)Nc1cnc(-c2ccc3c(c2)CCC(CC(=O)O)(CC(F)(F)F)C3=O)cn1 (stereo not drawn) [Example 219]
34 | 0.3 | CCc1ccc(NC(=O)Nc2cnc(-c3ccc4c(c3)CCC(CC(=O)O)(CC(F)(F)F)C4=O)cn2)cc1 (stereo not drawn) [Example 220]
35 | 0.7 | O=C(O)CC1(CC(F)(F)F)CCc2cc(-c3cnc(NC(=O)Nc4cccc(Cl)c4)cn3)ccc2C1=O (stereo not drawn) [Example 223]
36 | 2.8 | O=C(O)CC1(CC(F)(F)F)CCc2cc(-c3ccc(NC(=O)Nc4cc(Cl)cc(Cl)c4)cc3)ccc2C1=O (stereo not drawn) [Example 224]
